Source: patent US11497212B2, “Substituted thiophenyl uracils, salts thereof and the use thereof as herbicidal agents” (Syngenta Crop Protection AG, priority 2017, dated 2022)

How the values were obtained:
Assay type in all cases: in vivo
Abutilon theophrasti [1] = test: Herbicidal action post-emergence (greenhouse pot trial); details: application rate 80 g/ha, scored visually after about 3 weeks vs untreated controls
Outline: (§1)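 Post-emergence spray at one-leaf stage (2–3 wk after sowing, sandy loam, greenhouse); WP/EC in water + 0.5% additive; 600 L/ha; rate 80 g/ha or less. Visual % efficacy at ~3 wk vs untreated (100 = dead).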

Alopecurus myosuroides [2] = test: as above; details: application rate 80 g/ha, scored visually after about 3 weeks vs untreated controls
Outline: as §1

Amaranthus retroflexus [3] = test: as above; details: application rate 80 g/ha, scored visually after about 3 weeks vs untreated controls
Outline: as §1

Digitaria sanguinalis [4] = test: as above; details: application rate 80 g/ha
Outline: as §1

Echinochloa crus-galli [5] = test: as above; details: application rate 80 g/ha, scored visually after about 3 weeks vs untreated controls
Outline: as §1

Hordeum murinum [6] = test: as above; details: application rate 80 g/ha, scored visually after about 3 weeks vs untreated controls
Outline: as §1

Lolium rigidum [7] = test: as above; details: application rate 80 g/ha, scored visually after about 3 weeks vs untreated controls
Outline: as §1

Matricaria inodora [8] = test: as above; details: application rate 80 g/ha, scored visually after about 3 weeks vs untreated controls
Outline: as §1

Pharbitis purpurea [9] = test: as above; details: application rate 80 g/ha
Outline: as §1

Polygonum convolvulus = test: as above; details: application rate 80 g/ha, scored visually after about 3 weeks vs untreated controls
Outline: as §1

Setaria viridis [10] = test: as above; details: application rate 80 g/ha, scored visually after about 3 weeks vs untreated controls
Outline: as §1

Stellaria media [11] = test: as above; details: application rate 80 g/ha, scored visually after about 3 weeks vs untreated controls
Outline: as §1

Veronica persica [12] = test: as above; details: application rate 80 g/ha
Outline: as §1

Viola tricolor [13] = test: as above; details: application rate 80 g/ha
Outline: as §1

Oryza sativa = test: Crop compatibility post-emergence (greenhouse pot trial)
Outline: (§2)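 Crops grown in sandy loam in greenhouse, sprayed at one-leaf stage (2–3 weeks after sowing) with WP or EC formulations in water plus 0.5% additive, 600 L/ha. Damage scored visually after about 3 weeks versus untreated controls, 0% = like control, 100% = dead.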

Triticum aestivum = test: as above
Outline: as §2

Abutilon theophrasti [14] = test: Herbicidal action pre-emergence (greenhouse pot trial); details: application rate 320 g/ha, scored after about 3 weeks
Outline: (§3)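 Pre-emergence soil-surface spray, 320 g/ha or lower, WP/EC formulations in water with 0.5% additive, 600 L/ha. Greenhouse, ~3 wk. Visual % efficacy vs untreated controls (100% = plants dead, 0% = like control).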

Amaranthus retroflexus [15] = test: as above; details: application rate 320 g/ha, scored after about 3 weeks
Outline: as §3

Avena fatua = test: as above; details: application rate 320 g/ha
Outline: as §3

Digitaria sanguinalis [16] = test: as above; details: application rate 80 g/ha
Outline: as §3

Echinochloa crus-galli [17] = test: as above; details: application rate 320 g/ha, scored after about 3 weeks
Outline: as §3

Hordeum murinum [18] = test: as above; details: application rate 320 g/ha
Outline: as §3

Lolium rigidum [19] = test: as above; details: application rate 320 g/ha
Outline: as §3

Matricaria inodora [20] = test: as above; details: application rate 320 g/ha, scored after about 3 weeks
Outline: as §3

Pharbitis purpurea [21] = test: as above; details: application rate 320 g/ha
Outline: as §3

Setaria viridis [22] = test: as above; details: application rate 320 g/ha, scored after about 3 weeks
Outline: as §3

Stellaria media [23] = test: as above; details: application rate 320 g/ha, scored after about 3 weeks
Outline: as §3

Veronica persica [24] = test: as above; details: application rate 320 g/ha
Outline: as §3

Viola tricolor [25] = test: as above; details: application rate 320 g/ha, scored after about 3 weeks
Outline: as §3

Glycine max = test: Crop compatibility pre-emergence (greenhouse pot trial); details: effect vs untreated controls
Outline: (§4)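 Seeds sown in pots and covered with soil; compounds formulated as WP or EC applied pre-emergence to the soil surface as aqueous suspension/emulsion with 0.5% additive at 600 L/ha water. Plants kept in greenhouse; crop damage scored visually after about 3 weeks as % versus untreated controls (0% = like control, 100% = dead).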

Zea mays = test: as above; details: application rate 80 g/ha, effect vs untreated controls
Outline: as §4

Alopecurus myosuroides [26] = test: Herbicidal action pre-emergence (greenhouse pot trial); details: application rate 320 g/ha, scored after about 3 weeks
Outline: as §3

Cyperus esculentus = test: as above; details: application rate 320 g/ha
Outline: as §3

SMILES	Abutilon theophrasti (Efficacy in %) (Abutilon theophrasti [1])	Alopecurus myosuroides (Efficacy in %) (Alopecurus myosuroides [2])	Amaranthus retroflexus (Efficacy in %) (Amaranthus retroflexus [3])	Echinochloa crus-galli (Efficacy in %) (Echinochloa crus-galli [5])	Lolium rigidum (Efficacy in %) (Lolium rigidum [7])	Matricaria inodora (Efficacy in %) (Matricaria inodora [8])	Pharbitis purpurea (Efficacy in %) (Pharbitis purpurea [9])	Polygonum convolvulus (Efficacy in %) (Polygonum convolvulus)	Setaria viridis (Efficacy in %) (Setaria viridis [10])	Stellaria media (Efficacy in %) (Stellaria media [11])	Veronica persica (Efficacy in %) (Veronica persica [12])	Viola tricolor (Efficacy in %) (Viola tricolor [13])	Abutilon theophrasti (Efficacy in %) (Abutilon theophrasti [14])	Amaranthus retroflexus (Efficacy in %) (Amaranthus retroflexus [15])	Echinochloa crus-galli (Efficacy in %) (Echinochloa crus-galli [17])	Hordeum murinum (Efficacy in %) (Hordeum murinum [18])	Lolium rigidum (Efficacy in %) (Lolium rigidum [19])	Matricaria inodora (Efficacy in %) (Matricaria inodora [20])	Pharbitis purpurea (Efficacy in %) (Pharbitis purpurea [21])	Setaria viridis (Efficacy in %) (Setaria viridis [22])	further results
CC1CC(COC(=O)C(C)Sc2cc(-n3c(=O)cc(C(F)(F)F)n(C)c3=O)c(F)cc2Cl)CO1 (stereo not shown) [I.1-73]	100%	90%	100%	100%	90%	100%	100%	100%	100%	100%	100%	100%	100%	100%	100%	90%	100%	100%	100%	100%	Digitaria sanguinalis (Efficacy in %) (Digitaria sanguinalis [4]): 100%; Hordeum murinum (Efficacy in %) (Hordeum murinum [6]): 80%; Oryza sativa (Efficacy in %) (Oryza sativa; application rate 20 g/ha): 5%; Triticum aestivum (Efficacy in %) (Triticum aestivum; application rate 80 g/ha): 20%; Avena fatua (Efficacy in %) (Avena fatua): 90%; Digitaria sanguinalis (Efficacy in %) (Digitaria sanguinalis [16]): 100%; Stellaria media (Efficacy in %) (Stellaria media [23]): 100%; Veronica persica (Efficacy in %) (Veronica persica [24]): 100%; Viola tricolor (Efficacy in %) (Viola tricolor [25]): 100%; Glycine max (Efficacy in %) (Glycine max; application rate 80 g/ha): 0%; Zea mays (Efficacy in %) (Zea mays): 0%
CC(Sc1cc(-n2c(=O)cc(C(F)(F)F)n(C)c2=O)c(F)cc1Cl)C(=O)NCC1CCCS1(=O)=O (stereo not shown) [I.1-275]	100%	90%	100%	90%	80%	100%	100%	100%	100%	100%	100%	100%	100%	100%	100%	90%	90%	100%	100%	100%	Oryza sativa (Efficacy in %) (Oryza sativa; application rate 20 g/ha): 20%; Triticum aestivum (Efficacy in %) (Triticum aestivum; application rate 20 g/ha): 20%; Alopecurus myosuroides (Efficacy in %) (Alopecurus myosuroides [26]): 100%; Avena fatua (Efficacy in %) (Avena fatua): 100%; Cyperus esculentus (Efficacy in %) (Cyperus esculentus): 80%; Stellaria media (Efficacy in %) (Stellaria media [23]): 100%; Veronica persica (Efficacy in %) (Veronica persica [24]): 100%; Viola tricolor (Efficacy in %) (Viola tricolor [25]): 100%
COCCCOC(=O)C(C)Sc1cc(-n2c(=O)cc(C(F)(F)F)n(C)c2=O)c(F)cc1Cl (stereo not shown) [I.1-26]	100%	80%	100%	100%	90%	100%	100%	100%	100%	100%	100%	100%	100%	100%	100%	100%	90%	100%	100%	100%	Digitaria sanguinalis (Efficacy in %) (Digitaria sanguinalis [4]): 100%; Hordeum murinum (Efficacy in %) (Hordeum murinum [6]): 90%; Oryza sativa (Efficacy in %) (Oryza sativa; application rate 5 g/ha): 10%; Triticum aestivum (Efficacy in %) (Triticum aestivum; application rate 5 g/ha): 20%; Avena fatua (Efficacy in %) (Avena fatua): 80%; Digitaria sanguinalis (Efficacy in %) (Digitaria sanguinalis [16]): 100%; Stellaria media (Efficacy in %) (Stellaria media [23]): 100%; Veronica persica (Efficacy in %) (Veronica persica [24]): 100%; Viola tricolor (Efficacy in %) (Viola tricolor [25]): 100%; Glycine max (Efficacy in %) (Glycine max; application rate 20 g/ha): 0%; Zea mays (Efficacy in %) (Zea mays): 10%
CCOCCCOC(=O)C(C)Sc1cc(-n2c(=O)cc(C(F)(F)F)n(C)c2=O)c(F)cc1Cl (stereo not shown) [I.1-27]	100%	90%	100%	100%	80%	100%	100%	100%	100%	100%	100%	100%	100%	100%	100%	80%	90%	100%	100%	100%	Digitaria sanguinalis (Efficacy in %) (Digitaria sanguinalis [4]): 100%; Hordeum murinum (Efficacy in %) (Hordeum murinum [6]): 80%; Oryza sativa (Efficacy in %) (Oryza sativa; application rate 5 g/ha): 10%; Triticum aestivum (Efficacy in %) (Triticum aestivum; application rate 5 g/ha): 10%; Alopecurus myosuroides (Efficacy in %) (Alopecurus myosuroides [26]): 80%; Digitaria sanguinalis (Efficacy in %) (Digitaria sanguinalis [16]): 100%; Stellaria media (Efficacy in %) (Stellaria media [23]): 100%; Veronica persica (Efficacy in %) (Veronica persica [24]): 100%; Viola tricolor (Efficacy in %) (Viola tricolor [25]): 100%; Glycine max (Efficacy in %) (Glycine max; application rate 80 g/ha): 20%; Zea mays (Efficacy in %) (Zea mays): 0%
